Earlier results in article PMC3714282, “Pharmacometabolomics of Response to Sertraline and to Placebo in Major Depressive Disorder – Possible Role for Methoxyindole Pathway” (PLoS ONE, 2013).

System: arylalkylamine N-acetyltransferase (AANAT) mRNA
Set-up: method as in PMID 9951564
Conditions: animal studies, chronic administration; cited from earlier work

SMILES: CNCCC(Oc1ccc(C(F)(F)F)cc1)c1ccccc1 (stereo not shown) [fluoxetine]
- brain arylalkylamine N-acetyltransferase (AANAT) mRNA: several-fold increase
